For data set [1], the system named is Smad signaling pathway of TGFβRI. Kind of data set: Inhibition of Smad signaling pathway of TGFβRI (3TP-lux luciferase reporter in HepG2 cell). In kind it is cell-based. To be noted: Homo sapiens; HepG2 cell, 3TP-lux plasmid, 18 hours; read-out: IC50 on the inhibition of Smad signaling pathway of TGFβRI. As for the experimental part: The inhibition effect of the compounds of the present invention on Smad signaling pathway of TGFβRI was determined by the following in vitro test.
The inhibition effect of the compounds of the present invention on Smad signaling pathway of TGFβRI was determined by the following experimental method:
The seeding density is 2.5×10^4 cells/well. The cells were incubated overnight at 37° C., 5% CO2. Each well was replaced with fresh EMEM medium containing 10% FBS. […] The cells were further incubated for 24 hours at 37° C., 5% CO2. Each well was replaced with 90 μL of EMEM medium containing 0.5% FBS, then the cells were starved for 6 hours. The compounds were formulated as a 20 mM stock solution, which was diluted in gradient to a 400× concentration with 100% DMSO, and further 40-fold diluted with EMEM containing 0.5% FBS. The cell culture plate was taken out, then 10 μl of diluted compound or control (0.25% DMSO) was added to each well respectively. The plate was shaken gently, then incubated for 18 hours in an incubator at 37° C., 5% CO2. Finally, 100 μl of detection reagent ONE-Glo™ Luciferase Assay (E6110, Promega) was added to each well, and the plate was placed in dark at room temperature for 10 minutes. The chemiluminescence signal values were measured with a Victor 3.0 (PerkinElmer). The IC50 values of the compounds were calculated using Graphpad Prism software based on each concentration of the compound and the corresponding signal value thereof.
For orientation: In a reporter assay the amount or activity of a reporter protein is the signal.

In the next data set the test system is NIH3T3 cell. Kind of data set: Inhibition of NIH3T3 cell proliferation (CellTiter-Glo). In kind it is cell-based. To be noted: Mus musculus, 72 hours, 0.5% FBS. The method, then:
The inhibition effect of the compounds of the present invention on NIH3T3 cell proliferation was determined by the following in vitro test.
The inhibition effect of the compounds of the present invention on NIH3T3 cell proliferation was determined by the following experimental method:
On a 96-well white plate with transparent bottom (3903, Corning), 100 μL of NIH3T3 cell (GNM6, Cell Bank of Typical Culture Collection Committee of Chinese Academy of Sciences) was seeded in a DMEM medium containing 10% FBS in each well. The seeding density is 2000 cells/well. The cells were incubated overnight at 37° C., 5% CO2. After overnight incubation, each well was replaced with 90 μL of DMEM medium containing 0.5% FBS. 10 μl of a 3-fold gradient dilution of the compounds with DMEM medium containing 0.5% FBS was then added, and the plate was incubated for 72 hours in a cell incubator at 37° C., 5% CO2. Finally, 50 μL of CellTiter-Glo (G7573, Promega) was added to each well. After incubation for 10 minutes at room temperature, the chemiluminescence signal values were measured with a Victor 3 microplate reader (PerkinElmer). The IC50 values of the compounds were calculated using Graphpad Prism software based on each concentration of the compound and the corresponding signal value thereof.
(ATP-based viability assays read luminescence as a measure of living cells.)

Another data set has as its target TGFβRI kinase ALK5 (Homo sapiens (Human), UniProt P36897). The experiment in a line: Inhibition of TGFβRI kinase ALK5 activity (TGFβRI kinase assay kit, ADP-Glo). In kind it is biochemical. The settings on record: ATP 50 μM; read-out: IC50 of inhibition effect on TGFβRI kinase ALK5 activity. The method, then:
The inhibition effect of TGFβRI kinase activity in vitro was determined by the following method.
The inhibition effect of the compounds of the present invention on TGFβRI kinase ALK5 activity was determined by the following experimental method:
TGFβRI kinase assay kit (V4093, Promega) was used to assay enzyme activity. 2 μl of enzyme solution (the final concentration of enzyme in the reaction system was 2 ng/μL) formulated with reaction buffer (40 mM Tris pH 7.5, 20 mM MgCl2, 0.1 mg/ml BSA), 1 μl of a 3-fold gradient dilution of the compounds dissolved in 5% DMSO, and 2 μl of a mixed solution of ATP and TGFβRI substrate peptide (the final concentration of ATP was 50 μM, and the final concentration of substrate was 0.2 μg/μL) were added successively to a 384-well plate (4514, Corning). After reaction at 27° C. for 2.5 hours, 5 μl of ADP-Glo solution in the kit was added to each well, then the plate was placed at 27° C. for 40 minutes. 10 μl of kinase assay reagent was then added to each well, then the plate was placed at 27° C. for 30 minutes. The chemiluminescence signal values were measured with a Victor 3 (PerkinElmer) multi-function microplate reader. The IC50 values of the compounds for enzyme inhibition were calculated using Graphpad prism software based on each concentration of the compound and the corresponding signal value thereof.
In general terms: In ADP-Glo the light output rises with the ADP produced.

Data set [2] is described as follows: Pharmacokinetics assay in rats after intragastrical administration. In kind it is in vivo. The settings on record: both sexes, Sprague-Dawley, rat, plasma, po, SD rats, 2 mg/kg. The method, then:
Rats were used as test animals. The drug concentration in plasma at different time points was determined by LC/MS/MS method after intragastrical administration of the compounds of Examples 1-1, 1-2, 2-1, 3-1, the compound with retention time of 6.631 minutes among Examples 9-1 and 9-2, and the compounds of Examples 33 and 39-1 to rats. The pharmacokinetic behavior of the compounds of the present invention was studied and evaluated in rats.
Compounds of Examples 1-1, 1-2, 2-1, 3-1, compound with retention time of 6.631 minutes among Examples 9-1 and 9-2, and compounds of Examples 33 and 39-1.
Twenty-eight healthy adult Sprague-Dawley (SD) rats (half male and half female) were purchased from SINO-BRITISH SIPPR/BK LAB. ANIMAL LTD., CO, with Certificate No.: SCXK (Shanghai) 2008-0016, and equally divided into 7 groups (4 rats per group).
A certain amount of the test compound was weighed, and added with 5% by volume of DMSO, 5% by volume of Tween 80, and 90% by volume of physiological saline were added to prepare a 0.2 mg/mL colorless, clear and transparent solution.
After an overnight fast, SD rats were administered intragastrically the test compounds at an administration dosage of 2.0 mg/kg and an administration volume of 10.0 mL/kg.
The rats were intragastrically administered the compounds of Examples 1-1, 1-2, 2-1, 3-1, the compound with retention time of 6.631 minutes among Examples 9-1 and 9-2, and the compounds of Examples 33 and 39-1.0.2 mL of blood was taken from the orbital sinus before administration and at 0.5, 1.0, 2.0, 4.0, 6.0, 8.0, 11.0 and 24.0 hours after administration. The samples were stored in heparinized tubes, and centrifuged for 10 minutes at 4° C. at 3,500 rpm to separate the blood plasma. The plasma samples were stored at −20° C. The rats were fed 2 hours after administration.
The content of the test compounds in the plasma of rats after intragastrical administration of the test compounds at different concentrations was determined: 25 μL of rat plasma at each time after administration was taken, added with 50 μL (100 ng/mL) of the internal standard solution of camptothecin and 175 μL of acetonitrile, shaken vertically for 5 minutes, and centrifuged for 10 minutes (4000 rpm). 3.0 μL of the supernatant was taken from the plasma samples for LC/MS/MS analysis.

The IC50 is the concentration at which inhibition is half-maximal. Broadly, the AUC is concentration integrated over time. What is called MRT is a mean duration of stay, worked out from the concentration-time curve.

Sequence of TGFβRI kinase ALK5 (P36897 34-503): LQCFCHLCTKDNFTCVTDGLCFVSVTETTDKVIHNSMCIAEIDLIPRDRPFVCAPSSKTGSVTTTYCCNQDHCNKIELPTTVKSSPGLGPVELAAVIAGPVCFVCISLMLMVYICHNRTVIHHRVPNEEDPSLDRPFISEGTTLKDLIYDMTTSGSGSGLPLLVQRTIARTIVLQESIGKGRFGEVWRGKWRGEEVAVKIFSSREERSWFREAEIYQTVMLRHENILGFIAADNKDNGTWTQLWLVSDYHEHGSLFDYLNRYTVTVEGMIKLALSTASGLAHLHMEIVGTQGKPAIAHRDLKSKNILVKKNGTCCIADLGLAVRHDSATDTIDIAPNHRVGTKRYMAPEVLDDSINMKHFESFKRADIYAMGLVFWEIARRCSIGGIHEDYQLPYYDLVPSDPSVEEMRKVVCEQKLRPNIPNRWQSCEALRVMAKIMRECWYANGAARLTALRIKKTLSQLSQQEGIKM

For `Cc1cccc(-c2nc3n(c2-c2ccc4nccc(C(N)=O)c4c2)C2CCC3C2)n1` (stereo not shown) [Example 1, 6-(2-(6-Methylpyridin-2-yl)-5,6,7,8-tetrahydro-5,8-methanoimidazo[1,2-a]pyridin-3-yl) quinoline-4-carboxamide], the IC50 in data set [1] was 57 nM; in the data set with NIH3T3 cell, 80 nM; at TGFβRI kinase ALK5, 14 nM.
In the case of `Cc1cccc(-c2nc3n(c2-c2ccc4nccc(C(N)=O)c4c2)[C@@H]2CC[C@H]3C2)n1` [Example 1-2, 6-((5R,8S)-2-(6-Methylpyridin-2-yl)-5,6,7,8-tetrahydro-5,8-methanoimidazo[1,2-a]pyridin-3-yl)quinoline-4-carboxamide], the IC50 in data set [1] came out at 15 nM; on TGFβRI kinase ALK5 it was 16 nM. Besides, in data set [2] (read-out: Apparent distribution volume Vz/F), the Vd/F turned out to be 14.6 ± 7.63 L/kg. For the same compound, the AUC in data set [2] (read-out: Area under curve AUC) was determined as 475 ± 267 ng·h/mL. Moreover, the CL/F in data set [2] (read-out: Clearance CLz/F) was determined as 89.2 ± 47.4 mL/min/kg. Moreover, the half-life in data set [2] (read-out: Half-life T1/2 (converted)) is 1.92 ± 0.14 h. Besides, the Cmax in data set [2] (read-out: Plasma concentration Cmax) came out at 146 ± 81 ng/mL. Also, the MRT in data set [2] (read-out: Residence time MRT) came out at 3.53 ± 0.93 h.
In the case of `Cc1cccc(-c2nc3n(c2-c2ccc4nccnc4c2)C2CCC3C2)n1` (stereo not shown) [Example 6, 2-(6-Methylpyridin-2-yl)-3-(quinoxalin-6-yl)-5,6,7,8-tetrahydro-5,8-methanoimidazo[1,2-a]pyridine], the IC50 is 21 nM in data set [1], 22 nM in the data set on NIH3T3 cell and 26 nM at TGFβRI kinase ALK5.
As for `Cc1cccc(-c2nc3n(c2-c2ccc4ncc(OCCO)nc4c2)C2CCC3C2)n1` (stereo not shown) [Example 7, 2-((7-(2-(6-Methylpyridin-2-yl)-5,6,7,8-tetrahydro-5,8-methanoimidazo[1,2-a]pyridin-3-yl)quinoxalin-2-yl)oxy)ethanol], the IC50 in data set [1] came out at 6 nM; with NIH3T3 cell, 23 nM; at TGFβRI kinase ALK5 it was 20 nM.
The like results for `NC(=O)c1nnc2ccc(-c3c(-c4ccc(F)cn4)nc4n3C3CCC4C3)cn12` (stereo not shown) [Example 9, 6-(2-(5-Fluoropyridin-2-yl)-5,6,7,8-tetrahydro-5,8-methanoimidazo[1,2-a]pyridin-3-yl)-[1,2,4]triazolo[4,3-a]pyridine-3-carboxamide] were, in that order, 82 nM, 91 nM and 43 nM.
On the same counts, the results for `Cc1cccc(-c2nc3n(c2-c2cc4cnccc4s2)C2CCC3C2)n1` (stereo not shown) [Example 10, 2-(2-(6-Methylpyridin-2-yl)-5,6,7,8-tetrahydro-5,8-methanoimidazo[1,2-a]pyridin-3-yl) thieno[3,2-c]pyridine] are 23 nM, 41 nM and 25 nM.
On the same counts, the results for `Cc1cccc(-c2nc3n(c2-c2ccc4ncnn4c2)C2CCC3C2)n1` (stereo not shown) [Example 11, 3-([1,2,4]Triazolo[1,5-a]pyridin-6-yl)-2-(6-methylpyridin-2-yl)-5,6,7,8-tetrahydro-5,8-methanoimidazo[1,2-a]pyridine] are 26 nM, 37 nM and 16 nM.
For `Cc1cccc(-c2nn3c(c2-c2ccc4ncnn4c2)C2CCC3CC2)n1` [Example 38, 3-([1,2,4]Triazolo[1,5-a]pyridin-6-yl)-2-(6-methylpyridin-2-yl)-4,5,6,7-tetrahydro-4,7-ethanopyrazolo[1,5-a]pyridine], the IC50 was found to be 11 nM in data set [1], 33 nM in the data set with NIH3T3 cell and 9 nM at TGFβRI kinase ALK5.
The like results for `NC(=O)c1ccnc2ccc(-c3c(-c4ccccn4)nc4n3[C@H]3CC[C@@H]4C3)cc12` [Example 45-1, 6-((5S,8R)-2-(Pyridin-2-yl)-5,6,7,8-tetrahydro-5,8-methanoimidazo[1,2-a]pyridin-3-yl) quinoline-4-carboxamide] were, in that order, 32 nM, 51 nM and 29 nM.
As to `NC(=O)c1nnc2cc(-c3c(-c4ccccn4)nc4n3[C@H]3CC[C@@H]4C3)ccn12` [Example 47-1, 7-((5S,8R)-2-(Pyridin-2-yl)-5,6,7,8-tetrahydro-5,8-methanoimidazo[1,2-a]pyridin-3-yl)-[1,2,4]triazolo[4,3-a]pyridine-3-carboxamide], the IC50 turned out to be 53 nM in data set [1] and 39 nM on TGFβRI kinase ALK5.

The values are drawn from US10906905B2, “Five-membered heteroaryl ring bridged ring derivative, preparation method therefor and medical use thereof” (Jiangsu Hengrui Medicine Co., Ltd., priority 2016, dated 2021).
